Experimental data from ChEMBL document CHEMBL5614404, “Optimization of potent, broad-spectrum, and specific anti-influenza compounds targeting RNA polymerase PA-PB1 heterodimerization” (Eur J Med Chem, 2024).
≈ marks a conversion by molar mass, not a printed value. Calls of active or inactive are those of the source. The rule behind the calls is not given here.

Assays:
Influenza A virus [1] = experiment: Antiviral activity against Influenza A virus WSN/33 (H1N1) clinical isolate infected in MDCK cells expressing ST6Gal by crystal violet staining based plaque reduction assay; format: functional, organism-based
Influenza B virus [2] = experiment: Antiviral activity against Influenza B virus Phuket/3073/2013 clinical isolate infected in MDCK cells expressing ST6Gal by crystal violet staining based plaque reduction assay; format: functional, organism-based; conditions: Phuket/3073/2013, MDCK
Influenza A virus [3] = experiment: Antiviral activity against Influenza A virus Texas/04/2009 (H1N1) clinical isolate infected in MDCK cells expressing ST6Gal by crystal violet staining based plaque reduction assay; format: functional, organism-based
Influenza A virus [4] = experiment: Antiviral activity against Influenza A virus Switzerland/9715293/2013 (H3N2) clinical isolate infected in MDCK cells expressing ST6Gal by crystal violet staining based plaque reduction assay; format: functional, organism-based
Influenza B virus [5] = experiment: Antiviral activity against Influenza B virus Memphis/20/1996 clinical isolate infected in MDCK cells expressing ST6Gal by crystal violet staining based plaque reduction assay; format: functional, organism-based; conditions: Memphis/20/1996, MDCK
[6] = Inhibition of heterodimerization of C-terminal His-tagged Influenza virus PA (239 to 716 residues)/N-terminal GST-tagged Influenza virus PB1 (1 to 25 residues) by ELISA; design: species or system unidentified influenza virus
Influenza B virus [7] = experiment: Antiviral activity against Influenza B virus Wisconsin/1/2010 clinical isolate infected in MDCK cells expressing ST6Gal by crystal violet staining based plaque reduction assay; format: functional, organism-based; conditions: Wisconsin/1/2010, MDCK
Influenza A virus [8] = experiment: Antiviral activity against Influenza A virus Washington/29/2009 (H1N1) clinical isolate infected in MDCK cells expressing ST6Gal by crystal violet staining based plaque reduction assay; format: functional, organism-based
Influenza A virus [9] = experiment: Antiviral activity against Oseltamivir-sensitive Influenza A virus Denmark/524/2009 (H1N1) clinical isolate infected in MDCK cells expressing ST6Gal by crystal violet staining based plaque reduction assay; format: functional, organism-based
Influenza B virus [10] = experiment: Antiviral activity against Influenza B virus Brisbane/60/2008 clinical isolate infected in MDCK cells expressing ST6Gal by crystal violet staining based plaque reduction assay; format: functional, organism-based; conditions: Brisbane/60/2008, MDCK
Influenza B virus [11] = experiment: Antiviral activity against Influenza B virus Utah/09/2014 clinical isolate infected in MDCK cells expressing ST6Gal by crystal violet staining based plaque reduction assay; format: functional, organism-based; conditions: Utah/09/2014, MDCK
[12] = Cytotoxicity against MDCK cells assessed as reduction in cell viability incubated for 48 hrs by Neutral red uptake assay; format: toxicity, cell-based, Canis lupus familiaris; conditions: dog
[13] = Metabolic stability in rat plasma at 2 mM measured after 1440 mins by UV/LC-MS analysis; format: ADME, cell-free; conditions: read-out: Stability
[14] = Permeability of compound assessed as membrane retention incubated for 5 hrs by PAMPA; format: ADME
[15] = Metabolic stability in human liver microsomes assessed as unmetabolized compound at 50 uM incubated for 1 hr in presence of NADPH by UV/LC-MS analysis; format: ADME, Microsome; conditions: read-out: Stability
Influenza A virus [16] = experiment: Antiviral activity against Influenza A virus PR/8/34 (H1N1) infected in MDCK cells incubated for 48 hrs by plaque reduction assay; format: functional, organism-based
[17] = Metabolic stability in rat plasma at 2 mM measured for 5 to 60 mins by UV/LC-MS analysis; format: ADME, cell-free; conditions: time 5-60 min, read-out: Stability
SARS-CoV-2 = experiment: Antiviral activity against SARS CoV-2 infected in human Caco-2 cells assessed as inhibition of viral replication; format: functional, organism-based; conditions: Severe acute respiratory syndrome coronavirus 2
[18] = Cytotoxicity against MDCK cells incubated for 48 hrs by MTT assay; format: toxicity, cell-based, Canis lupus familiaris; conditions: dog
Influenza A virus [19] = experiment: Antiviral activity against Influenza A virus PR/8/34 infected in MDCK cells incubated for 48 hrs by plaque reduction assay; format: functional, organism-based; conditions: Influenza A virus, PR/8/34, MDCK, 48 h
[20] = Thermodynamic solubility in aqueous media incubated for 24 hrs by shake flask method; format: physicochemical; conditions: read-out: Therm_solubility
[21] = Cytotoxicity against HEK293T cells incubated for 48 hrs by MTT assay; format: toxicity, cell-based, HEK-293T; conditions: human
A549 [22] = experiment: (§1) Antiviral activity against HPIV infected in human A549 cells assessed as inhibition of viral replication; format: functional, cell-based
[23] = system: unidentified influenza virus; experiment: Thermal stabilization of C-terminal 6His-tagged Influenza virus PA (239 to 716 residues) extracted from Escherichia coli BL21(DE3)pLysS/N-terminal Influenza virus PB1 (1 to 25 residues) assessed as shift in melting temperature by nano-DSF assay
[24] = Selectivity index, ratio of CC50 for MDCK cells to EC50 for Influenza A virus PR/8/34 infected in MDCK cells; format: toxicity, cell-based; conditions: dog, read-out: Ratio CC50/EC50
Huh-7 = experiment: Cytotoxicity against human Huh-7 cells; format: toxicity, cell-based
Influenza B virus [25] = experiment: Antiviral activity against ancestral Influenza B virus Lee/40 infected in MDCK cells incubated for 48 hrs by plaque reduction assay; format: functional, organism-based; conditions: Lee/40, MDCK
[26] = Inhibition of 6His-tagged Influenza virus PA (239 to 716 residues) extracted from Escherichia coli BL21(DE3)pLysS/GST-tagged Influenza virus PB1 (1 to 25 residues) by ELISA; design: species or system unidentified influenza virus
A549 [27] = experiment: (§2) Cytotoxicity against human A549 cells; format: toxicity, cell-based; conditions: a549
Dengue virus = experiment: Antiviral activity against DENV infected in human Huh-7 cells assessed as inhibition of viral replication; format: functional, organism-based
[28] = Binding affinity to RED-NT650-NHS-labeled C-terminal 6His-tagged recombinant Influenza virus PA (239 to 716 residues) extracted from Escherichia coli BL21(DE3)pLysS assessed as dissociation constant by MST assay; design: species or system unidentified influenza virus
West Nile virus = experiment: Antiviral activity against WNV infected in human Huh-7 cells assessed as inhibition of viral replication; format: functional, organism-based
Influenza A virus [29] = experiment: Antiviral activity against Influenza A virus Wisconsin/67/05 (H3N2) infected in MDCK cells incubated for 48 hrs by plaque reduction assay; format: functional, organism-based
Influenza B virus [30] = experiment: Antiviral activity against Influenza B virus Malaysia/2506/04 infected in MDCK cells incubated for 48 hrs by plaque reduction assay; format: functional, organism-based; conditions: Malaysia/2506/04, MDCK
Caco-2 = experiment: Cytotoxicity against human Caco-2 cells; format: toxicity, cell-based
[31] = Apparent permeability of compound incubated for 5 hrs by PAMPA; format: ADME
HEK293T = experiment: Inhibition of heterodimerization of Influenza virus GFP-fused PA/PB1 transfected in HEK293T cells assessed as impaired nuclear import at 0.5 uM incubated for 14 hrs by CLSM analysis; format: cell-based; conditions: unidentified influenza virus
[32] = as §1; format: functional, cell-based
[33] = as §2; format: toxicity, cell-based; conditions: A549 cells
[34] = Metabolic stability in rat plasma at 2 mM measured upto 1440 mins by UV/LC-MS analysis; format: ADME, cell-free; conditions: read-out: Stability
[35] = Cytotoxicity against MDCK cells by Neutral red uptake assay; format: toxicity, cell-based, Canis lupus familiaris; conditions: dog
Influenza B virus [36] = experiment: Antiviral activity against Influenza B virus Brisbane/60/2008 infected in MDCK cells by plaque reduction assay; format: functional, organism-based; conditions: Brisbane/60/2008, MDCK
Influenza A virus [37] = experiment: Antiviral activity against Amantadine/Oseltamivir-sensitive Influenza A virus Solomon Islands/03/2006 (H1N1) infected in MDCK cells by plaque reduction assay; format: functional, organism-based
[38] = Inhibition of heterodimerization of C-terminal His-tagged Influenza virus PA (239 to 716 residues)/N-terminal GST-tagged Influenza virus PB1 (1 to 25 residues) incubated overnight by ELISA; design: species or system unidentified influenza virus

SMILES | Activity [14] [%] | remaining at 1 h, 50 µM [15] [%] | EC50 (Influenza A virus [16]) [nM] | Activity (SARS-CoV-2) | CC50 at 48 h [18] [nM] | EC50 (Influenza A virus [19]) [nM] | solubility thermodynamic at 24 h [20] [µM] | CC50 at 48 h [21] [nM] | Activity [23] | selectivity ratio [24] | Activity (Huh-7) | EC50 (Influenza B virus [25]) [nM] | IC50 [26] [nM] | Activity (Dengue virus) | Activity (West Nile virus) | EC50 (Influenza A virus [29]) [nM] | EC50 (Influenza B virus [30]) [nM] | Activity (Caco-2) | Papp at 5 h [31] [×10⁻⁶ cm/s] | inhibition (HEK293T) | further results
C[C@@H](c1ccccc1)n1nnnc1[C@H](c1ccsc1)N1CCC(n2c(=O)[nH]c3ccccc32)CC1 |  |  |  |  |  |  |  |  |  |  |  |  |  |  |  |  |  |  |  |  | EC50 (Influenza A virus [1]): 600 nM; EC50 (Influenza B virus [2]): 600 nM; EC50 (Influenza A virus [3]): 600 nM; EC50 (Influenza A virus [4]): 600 nM; EC50 (Influenza B virus [5]): 600 nM; IC50 [6]: 7600 nM; EC50 (Influenza B virus [7]): 600 nM; EC50 (Influenza A virus [8]): 600 nM; EC50 (Influenza A virus [9]): 600 nM; EC50 (Influenza B virus [10]): 600 nM; EC50 (Influenza B virus [11]): 600 nM; CC50 at 48 h [12]: > 300000 nM
N#Cc1ccc(C(=O)Nc2sc3c(c2C(=O)Nc2ccccc2O)CCCCC3)cc1 | 57 | 93.3 | 380 | inactive | > 250000 | 380 | 17.6 (≈ 7.59 µg/mL) | > 50000 | Active | > 667 | Non-Toxic | 300 | 19300 | inactive | inactive | 220 | 350 | Non-Toxic | 3.48 | Active | remaining at 24 h, 2000 µM [13]: 81%; remaining at 2000 µM [17]: 95%; Activity (A549 [22]): inactive; Activity (A549 [27]): Non-Toxic; Kd [28]: 5750 nM
O=C(Nc1sc2c(c1C(=O)Nc1ccccc1O)CCCCC2)c1ccc([N+](=O)[O-])cc1O | 2.5 | 93.8 | 89 | inactive | 224000 | 89 | 49.8 (≈ 23.3 µg/mL) | > 50000 | Active | 2520 | Non-Toxic | 87 | 26500 | inactive | inactive | 54 | 88 | Non-Toxic | 0.78 | Active | EC50 [32]: 21700 nM; CC50 [33]: > 40000 nM; remaining at 24 h, 2000 µM [34]: ~100%
O=C1C(c2ncc([N+](=O)[O-])s2)CC[C@@H]2CCCC[C@@H]12 (some centres undefined) |  |  |  |  |  |  |  |  |  |  |  |  |  |  |  |  |  |  |  |  | CC50 [35]: > 300000 nM; EC50 (Influenza B virus [36]): 930 nM; EC50 (Influenza A virus [37]): 930 nM; IC50 [38]: 18500 nM
